According to PubChem BioAssay (NCI):
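These data come from cells grown in 96-well plates and exposed to compound for 48 hours at five concentrations. TGI: concentration producing complete growth inhibition.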

What was measured:
Assay in all cases: inhibition of tumour cell growth, NCI panel, 48 h
786-0 renal = system: 786-0 renal
A498 renal = system: A498 renal
A549 NSCLC = system: A549 NSCLC
ACHN renal = system: ACHN renal
CAKI-1 renal = system: CAKI-1 renal
CCRF-CEM leukemia = system: CCRF-CEM leukemia
COLO 205 colon = system: COLO 205 colon
DLD-1 colon = system: DLD-1 colon
DMS 114 small cell lung = system: DMS 114 small cell lung
DMS 273 small cell lung = system: DMS 273 small cell lung
HCT-116 colon = system: HCT-116 colon
HCT-15 colon = system: HCT-15 colon
HL-60(TB) leukemia = system: HL-60(TB) leukemia
HOP-18 NSCLC = system: HOP-18 NSCLC
HOP-62 NSCLC = system: HOP-62 NSCLC
HOP-92 NSCLC = system: HOP-92 NSCLC
HT29 colon = system: HT29 colon
IGROV1 ovarian = system: IGROV1 ovarian
K-562 leukemia = system: K-562 leukemia
KM12 colon = system: KM12 colon
LOX IMVI melanoma = system: LOX IMVI melanoma
LXFL 529 NSCLC = system: LXFL 529 NSCLC
M14 melanoma = system: M14 melanoma
M19-MEL melanoma = system: M19-MEL melanoma
MALME-3M melanoma = system: MALME-3M melanoma
MOLT-4 leukemia = system: MOLT-4 leukemia
NCI-H226 lung = system: NCI-H226 lung
NCI-H23 lung = system: NCI-H23 lung
NCI-H460 lung = system: NCI-H460 lung
NCI-H522 lung = system: NCI-H522 lung
OVCAR-4 ovarian = system: OVCAR-4 ovarian
OVCAR-5 ovarian = system: OVCAR-5 ovarian
OVCAR-8 ovarian = system: OVCAR-8 ovarian
RPMI-8226 leukemia = system: RPMI-8226 leukemia
RXF 393 renal = system: RXF 393 renal
SF-268 CNS = system: SF-268 CNS
SF-295 CNS = system: SF-295 CNS
SF-539 CNS = system: SF-539 CNS
SK-MEL-2 melanoma = system: SK-MEL-2 melanoma
SK-MEL-5 melanoma = system: SK-MEL-5 melanoma
SK-OV-3 ovarian = system: SK-OV-3 ovarian
SN12C renal = system: SN12C renal
SNB-75 CNS = system: SNB-75 CNS
SR leukemia = system: SR leukemia
SW-620 colon = system: SW-620 colon
TK-10 renal = system: TK-10 renal
U251 CNS = system: U251 CNS
UACC-257 melanoma = system: UACC-257 melanoma
UACC-62 melanoma = system: UACC-62 melanoma
UO-31 renal = system: UO-31 renal
EKVX NSCLC = system: EKVX NSCLC
KM20L2 colon = system: KM20L2 colon
OVCAR-3 ovarian = system: OVCAR-3 ovarian
SK-MEL-28 melanoma = system: SK-MEL-28 melanoma
SNB-19 CNS = system: SNB-19 CNS
SNB-78 CNS = system: SNB-78 CNS
XF 498 CNS = system: XF 498 CNS
HCC-2998 colon = system: HCC-2998 colon

COc1ccc(C2S/C(=C\c3ccc(OC)cc3OC)C(=O)N2NC(=O)Cc2ccccc2)cc1 (stereo not given)
TGI (786-0 renal): > 100 µM
TGI (A498 renal): > 100 µM
TGI (A549 NSCLC): > 100 µM
TGI (ACHN renal): > 100 µM
TGI (CAKI-1 renal): > 100 µM
TGI (CCRF-CEM leukemia): > 100 µM
TGI (COLO 205 colon): > 100 µM
TGI (DLD-1 colon): > 100 µM
TGI (DMS 114 small cell lung): > 100 µM
TGI (DMS 273 small cell lung): > 100 µM
TGI (HCT-116 colon): > 100 µM
TGI (HCT-15 colon): > 100 µM
TGI (HL-60(TB) leukemia): > 100 µM
TGI (HOP-18 NSCLC): > 100 µM
TGI (HOP-62 NSCLC): > 100 µM
TGI (HOP-92 NSCLC): > 100 µM
TGI (HT29 colon): > 100 µM
TGI (IGROV1 ovarian): > 100 µM
TGI (K-562 leukemia): > 100 µM
TGI (KM12 colon): > 100 µM
TGI (LOX IMVI melanoma): > 100 µM
TGI (LXFL 529 NSCLC): > 100 µM
TGI (M14 melanoma): > 100 µM
TGI (M19-MEL melanoma): > 100 µM
TGI (MALME-3M melanoma): > 100 µM
TGI (MOLT-4 leukemia): > 100 µM
TGI (NCI-H226 lung): > 100 µM
TGI (NCI-H23 lung): > 100 µM
TGI (NCI-H460 lung): > 100 µM
TGI (NCI-H522 lung): > 100 µM
TGI (OVCAR-4 ovarian): > 100 µM
TGI (OVCAR-5 ovarian): > 100 µM
TGI (OVCAR-8 ovarian): > 100 µM
TGI (RPMI-8226 leukemia): > 100 µM
TGI (RXF 393 renal): > 100 µM
TGI (SF-268 CNS): > 100 µM
TGI (SF-295 CNS): > 100 µM
TGI (SF-539 CNS): > 100 µM
TGI (SK-MEL-2 melanoma): > 100 µM
TGI (SK-MEL-5 melanoma): > 100 µM
TGI (SK-OV-3 ovarian): > 100 µM
TGI (SN12C renal): > 100 µM
TGI (SNB-75 CNS): > 100 µM
TGI (SR leukemia): > 100 µM
TGI (SW-620 colon): > 100 µM
TGI (TK-10 renal): > 100 µM
TGI (U251 CNS): > 100 µM
TGI (UACC-257 melanoma): > 100 µM
TGI (UACC-62 melanoma): > 100 µM
TGI (UO-31 renal): > 100 µM

Cc1ccc(N2C(=O)/C(=C3\Sc4c(nc(C)[nH]c4=O)N3c3ccccc3)SC2=S)cc1
TGI (786-0 renal): 25.3 µM
TGI (A498 renal): 88.2 µM
TGI (A549 NSCLC): > 100 µM
TGI (ACHN renal): > 100 µM
TGI (CAKI-1 renal): > 100 µM
TGI (CCRF-CEM leukemia): > 100 µM
TGI (COLO 205 colon): > 100 µM
TGI (DLD-1 colon): > 100 µM
TGI (DMS 114 small cell lung): > 100 µM
TGI (DMS 273 small cell lung): > 100 µM
TGI (EKVX NSCLC): > 100 µM
TGI (HCT-116 colon): > 100 µM
TGI (HCT-15 colon): > 100 µM
TGI (HL-60(TB) leukemia): > 100 µM
TGI (HOP-62 NSCLC): 25.9 µM
TGI (HOP-92 NSCLC): 97.3 µM
TGI (HT29 colon): > 100 µM
TGI (IGROV1 ovarian): > 100 µM
TGI (K-562 leukemia): 95.8 µM
TGI (KM20L2 colon): > 100 µM
TGI (LOX IMVI melanoma): 70.7 µM
TGI (LXFL 529 NSCLC): > 100 µM
TGI (M14 melanoma): > 100 µM
TGI (M19-MEL melanoma): > 100 µM
TGI (MALME-3M melanoma): > 100 µM
TGI (NCI-H226 lung): 86.6 µM
TGI (NCI-H23 lung): 56.7 µM
TGI (NCI-H460 lung): > 100 µM
TGI (NCI-H522 lung): > 100 µM
TGI (OVCAR-3 ovarian): 47.7 µM
TGI (OVCAR-4 ovarian): > 100 µM
TGI (OVCAR-5 ovarian): > 100 µM
TGI (OVCAR-8 ovarian): > 100 µM
TGI (RPMI-8226 leukemia): > 100 µM
TGI (SF-268 CNS): > 100 µM
TGI (SF-295 CNS): 54.8 µM
TGI (SF-539 CNS): 29.5 µM
TGI (SK-MEL-2 melanoma): > 100 µM
TGI (SK-MEL-28 melanoma): > 100 µM
TGI (SK-MEL-5 melanoma): > 100 µM
TGI (SK-OV-3 ovarian): 53.5 µM
TGI (SN12C renal): > 100 µM
TGI (SNB-19 CNS): > 100 µM
TGI (SNB-75 CNS): 56.4 µM
TGI (SNB-78 CNS): > 100 µM
TGI (SW-620 colon): > 100 µM
TGI (TK-10 renal): 59.2 µM
TGI (U251 CNS): 37.9 µM
TGI (UACC-257 melanoma): > 100 µM
TGI (UACC-62 melanoma): > 100 µM
TGI (UO-31 renal): 92.1 µM
TGI (XF 498 CNS): 51.8 µM

O=c1[nH]c(=S)[nH]c(O)c1/C=C1\C=CC=N1
TGI (786-0 renal): 24.8 µM
TGI (A498 renal): 84.3 µM
TGI (A549 NSCLC): > 100 µM
TGI (ACHN renal): 29.6 µM
TGI (CAKI-1 renal): 25.6 µM
TGI (CCRF-CEM leukemia): 75.5 µM
TGI (COLO 205 colon): 32 µM
TGI (DLD-1 colon): 22 µM
TGI (DMS 114 small cell lung): 23.3 µM
TGI (DMS 273 small cell lung): 25.3 µM
TGI (EKVX NSCLC): 56.7 µM
TGI (HCC-2998 colon): 25 µM
TGI (HCT-116 colon): 18.7 µM
TGI (HCT-15 colon): 14.8 µM
TGI (HL-60(TB) leukemia): > 100 µM
TGI (HOP-18 NSCLC): 85.7 µM
TGI (HOP-62 NSCLC): 97.6 µM
TGI (HOP-92 NSCLC): 36.1 µM
TGI (HT29 colon): 54.2 µM
TGI (IGROV1 ovarian): 65 µM
TGI (K-562 leukemia): > 100 µM
TGI (KM12 colon): 39.6 µM
TGI (KM20L2 colon): 41.1 µM
TGI (LOX IMVI melanoma): 46.2 µM
TGI (LXFL 529 NSCLC): 21.9 µM
TGI (M14 melanoma): 54.8 µM
TGI (M19-MEL melanoma): > 100 µM
TGI (MALME-3M melanoma): 34.4 µM
TGI (MOLT-4 leukemia): 44.3 µM
TGI (NCI-H226 lung): 33.4 µM
TGI (NCI-H23 lung): 40 µM
TGI (NCI-H460 lung): 65.5 µM
TGI (NCI-H522 lung): 3.59 µM
TGI (OVCAR-3 ovarian): 21.8 µM
TGI (OVCAR-4 ovarian): 32 µM
TGI (OVCAR-5 ovarian): 47 µM
TGI (OVCAR-8 ovarian): 17.9 µM
TGI (RPMI-8226 leukemia): 23 µM
TGI (RXF 393 renal): 9.6 µM
TGI (SF-268 CNS): 55.1 µM
TGI (SF-295 CNS): 82.4 µM
TGI (SF-539 CNS): 40.5 µM
TGI (SK-MEL-2 melanoma): 51.4 µM
TGI (SK-MEL-28 melanoma): 48.5 µM
TGI (SK-MEL-5 melanoma): > 100 µM
TGI (SK-OV-3 ovarian): > 100 µM
TGI (SN12C renal): 22.5 µM
TGI (SNB-19 CNS): > 100 µM
TGI (SNB-75 CNS): 42.5 µM
TGI (SNB-78 CNS): 67.4 µM
TGI (SR leukemia): 18 µM
TGI (SW-620 colon): 23.5 µM
TGI (TK-10 renal): 37.7 µM
TGI (U251 CNS): 89.2 µM
TGI (UACC-257 melanoma): 72.4 µM
TGI (UACC-62 melanoma): 35.6 µM
TGI (UO-31 renal): 31.2 µM
TGI (XF 498 CNS): 32.3 µM
